# From patent US5744453A, “Polyamine conjugates for treatment of infection” (priority 1996, dated 1998)
# Like-named read-outs stand apart in the source and are kept apart here.
# Assays:
# Format in all cases: cell-based
# [1] = tested on: Enterococcus faecalis 29212; experiment: Determination of MIC against bacteria (Table 1), E. faecalis 29212; details: read-out: minimum inhibitory concentration (MIC), E. faecalis 29212
# Description: (§1) Antibiotic indicator strains Escherichia coli strain 25922, Enterococcus faecalis 29212, Pseudomonas aeruginosa 27853, and Staphylococcus aureus 29213 are obtained from the American Type Tissue Culture Collection (ATCC) in Rockville, Md. The cystic fibrosis isolate, Pseudomonas aeruginosa 39324, is also obtained from ATCC. Bacteria are routinely cultivated in cation-supplemented Mueller-Hinton broth (CAMHB) or agar at 37° C.
# (§2) The minimum inhibitory concentration (MIC) of glycosylated and non-glycosylated steroidal polyamines for antibiotic indicator strains is determined by dissolving the test compounds in deionized water to a final concentration of 1 mg per mL. […] These solutions are sterilized by filtration through 0.22 micron syringe filters.
# (§3) Stock solutions of individual compounds are serially diluted (two-fold) in sterile CAMHB in 96-well tissue culture dishes (Falcon) and inoculated with antibiotic indicator strains that are prepared as described below.
# (§4) Antibiotic indicator strains are grown in 5 mL of CAMHB for 3-4 h at 37° C. with shaking (200 rpm) on a New Brunswick rotary shaker. Bacteria are adjusted to a turbidity that matched a 0.5 McFarland standard (ca. 10^8 CFU per mL) in sterile 0.85% saline. These bacterial suspensions are diluted 1:20 in sterile 0.85% saline and 10 μL (ca. […]) of each suspension is used to inoculate individual wells of a 96 well plate that contained different concentrations of the test compounds. Following inoculation, the plates are sealed with plastic tape, incubated for 24 h at 37° C. and visually inspected for bacterial growth. CAMHB inoculated with each of the antibiotic test strains and uninoculated CAMBH plus each of the test compounds served as positive and negative controls.
# [2] = tested on: Pseudomonas aeruginosa 27853; experiment: Determination of MIC against bacteria (Table 1), P. aeruginosa 27853; details: read-out: minimum inhibitory concentration (MIC), P. aeruginosa 27853
# Description: as §1, §2, §3, §4
# [3] = tested on: Escherichia coli strain 25922; experiment: Determination of MIC against bacteria (Table 1), E. coli 25922; details: read-out: minimum inhibitory concentration (MIC), E. coli 25922
# Description: as §1, §2, §3, §4
# [4] = tested on: Pseudomonas aeruginosa 39324; experiment: Determination of MIC against bacteria (Table 1), P. aeruginosa 39324 (cystic fibrosis isolate); details: read-out: minimum inhibitory concentration (MIC), P. aeruginosa 39324
# Description: as §1, §2, §3, §4
# [5] = tested on: Staphylococcus aureus 29213; experiment: Determination of MIC against bacteria (Table 1), S. aureus 29213; details: read-out: minimum inhibitory concentration (MIC), S. aureus 29213
# Description: as §1, §2, §3, §4
# [6] = Enterococcus faecalis, 29212, 24 h
# [7] = Pseudomonas aeruginosa, 27853, 24 h
# [8] = Pseudomonas aeruginosa, 39324, 24 h
# [9] = Staphylococcus aureus, 29213, 24 h
# [10] = Enterococcus faecalis, 29212, CAMHB, 24 h at 37° C., tested from 1.56 to 200 μg per mL
# [11] = Pseudomonas aeruginosa, 27853, CAMHB, 24 h at 37° C., tested from 1.56 to 200 μg per mL
# [12] = Escherichia coli, 25922, CAMHB, 24 h at 37° C., tested from 1.56 to 200 μg per mL
# [13] = Pseudomonas aeruginosa, 39324, CAMHB, 24 h at 37° C., tested from 1.56 to 200 μg per mL
# [14] = Staphylococcus aureus, 29213, CAMHB, 24 h at 37° C., tested from 1.56 to 200 μg per mL
SMILES,"MIC [1, 6]","MIC [2, 7]","MIC ([3]; Escherichia coli, 25922, 24 h)","MIC [4, 8]","MIC [5, 9]","MIC [1, 10]","MIC [2, 11]","MIC [3, 12]","MIC [4, 13]","MIC [5, 14]"
"C[C@H](CCC(=O)NCCCNCCCCNCCCN)[C@H]1CC[C@H]2[C@@H]3[C@H](O)C[C@@H]4C[C@H](O)CC[C@]4(C)[C@H]3C[C@H](O)[C@]12C [Compound B, 3α,7α,12α-trihydroxy-5β-cholan-24-oic acid, N-(4,9-diaza-12-aminododecyl)amide]",200 µg/mL,100 to 200 µg/mL,200 µg/mL,100 µg/mL,50 µg/mL,–,–,–,–,–
"C[C@H](CCC(=O)NCCNCCNCCNCCNCCN)[C@H]1CC[C@H]2[C@@H]3CC[C@@H]4C[C@H](O)CC[C@]4(C)[C@H]3CC[C@]12C [Compound N, 3α-hydroxy-7,12-dideoxy-5β-cholan-24-oic acid (or lithocholic acid), N-(3,6,9,12-tetraaza-14-aminotetradecyl)amide]",–,–,–,–,–,200 µg/mL,200 µg/mL,> 200 µg/mL,200 µg/mL,50 µg/mL
"NCCCNCCCCNCCCN [spermine, N-[N-(3-aminopropyl)-4-aminobutyl]-1,3-diaminopropane, reference compound]",–,–,–,–,–,> 200 µg/mL,> 200 µg/mL,> 200 µg/mL,> 150 µg/mL,> 200 µg/mL
"C[C@H](CCC(=O)NCCCNCCCCNCCCN)[C@H]1CC[C@H]2[C@@H]3[C@H](O[C@H]4O[C@H](CO)[C@@H](O)[C@H](O)[C@H]4O)C[C@@H]4C[C@H](O)CC[C@]4(C)[C@H]3C[C@H](O[C@H]3O[C@H](CO)[C@@H](O)[C@H](O)[C@H]3O)[C@]12C [Compound C, 3α-hydroxy-7α,12α-di(1'α-glucosyl)-5β-cholan-24-oic acid, N-(4,9-diaza-12-aminododecyl)amide]",> 200 µg/mL,200 µg/mL,200 µg/mL,–,200 µg/mL,–,–,–,–,–
"C[C@H](CCC(=O)NCCNCCNCCNCCN)[C@H]1CC[C@H]2[C@@H]3[C@H](O[C@H]4O[C@H](CO)[C@@H](O)[C@H](O)[C@H]4O)C[C@@H]4C[C@H](O)CC[C@]4(C)[C@H]3C[C@H](O[C@H]3O[C@H](CO)[C@@H](O)[C@H](O)[C@H]3O)[C@]12C [Compound M, 3α-hydroxy-7α,12α-di(1'α-glucosyl)-5β-cholan-24-oic acid, N-(3,6,9-triaza-11-aminoundecyl)amide]",–,–,–,–,–,> 200 µg/mL,> 200 µg/mL,> 200 µg/mL,> 150 µg/mL,> 200 µg/mL
"C[C@H](CCC(=O)NCCNCCNCCNCCN)[C@H]1CC[C@H]2[C@@H]3[C@H](O)C[C@@H]4C[C@H](O)CC[C@]4(C)[C@H]3C[C@H](O)[C@]12C [Compound J, 3α,7α,12α-trihydroxy-5β-cholan-24-oic acid, N-(3,6,9-triaza-11-aminoundecyl)amide]",–,–,–,–,–,18.7 µg/mL,75 µg/mL,75 µg/mL,37.5 µg/mL,37.5 µg/mL
"C[C@H](CCC(=O)NCCCNCCCCNCCCN)[C@H]1CC[C@H]2[C@@H]3[C@H](O[C@H]4O[C@H](CO)[C@@H](O)[C@H](O)[C@H]4O)C[C@@H]4C[C@H](O)CC[C@]4(C)[C@H]3CC[C@]12C [Compound E, 3α-hydroxy-12-deoxy-7α-(1'α-glucosyl)-5β-cholan-24-oic acid, N-(4,9-diaza-12-aminododecyl)amide]",25 µg/mL,12.5 µg/mL,12.5 µg/mL,12.5 µg/mL,25 µg/mL,–,–,–,–,–
"NCCNCCNCCNCCN [tetraethylenepentamine, reference compound]",–,–,–,–,–,> 200 µg/mL,> 200 µg/mL,> 200 µg/mL,> 150 µg/mL,> 200 µg/mL
"C[C@H](CCC(=O)NCCNCCNCCNCCNCCN)[C@H]1CC[C@H]2[C@@H]3[C@H](O)C[C@@H]4C[C@H](O)CC[C@]4(C)[C@H]3C[C@H](O)[C@]12C [Compound K, 3α,7α,12α-trihydroxy-12-deoxy-5β-cholan-24-oic acid, N-(3,6,9,12-tetraaza-14-aminotetradecyl)amide]",–,–,–,–,–,15.7 µg/mL,75 µg/mL,75 µg/mL,75 µg/mL,37.5 µg/mL
